Assay results published in ChEMBL document CHEMBL1201862, “PubChem BioAssay data set” (2004).
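Grown in 96-well plates, cells were treated for 48 hours with each compound at five concentrations. Insufficient inhibition: endpoint recorded as highest concentration tested. GI50: concentration for 50% inhibition of growth.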 Active and inactive are the calls of the source. Rule as the data show it: active = GI50 up to about 1.1 µM and inactive = higher.

Columns and labels:
Assay in all cases: NCI-60 cell line screen, 48 h
M14 = system: M14
RPMI-8226 = system: RPMI-8226
T47D = system: T47D
COLO 205 = system: COLO 205
SF-539 = system: SF-539
SK-MEL-2 = system: SK-MEL-2
TK-10 = system: TK-10
CAKI-1 = system: CAKI-1
786-0 = system: 786-0
LOX IMVI = system: LOX IMVI
SN12C = system: SN12C
PC-3 = system: PC-3
NCI/ADR-RES = system: NCI/ADR-RES
UO-31 = system: UO-31
NCI-H522 = system: NCI-H522
ACHN = system: ACHN
NCI-H23 = system: NCI-H23
MDA-MB-435 = system: MDA-MB-435
RXF 393 = system: RXF 393

Measured: GI50

CCCC(=O)O[C@H]1C=C2C[C@@]34SS[C@]5(CC6=C[C@H](OC(C)=O)[C@@H]7O[C@@H]7[C@H]6N5C3=O)C(=O)N4[C@@H]2[C@H]2O[C@H]21
active: M14 0.0129 µM | RPMI-8226 0.00524 µM | T47D 0.0256 µM | COLO 205 0.0137 µM | SF-539 0.0194 µM | SK-MEL-2 0.0552 µM | TK-10 0.0347 µM | CAKI-1 0.0175 µM | 786-0 < 0.005 µM | LOX IMVI 0.0208 µM | SN12C 0.00567 µM | PC-3 0.0199 µM | NCI/ADR-RES 0.0128 µM | UO-31 0.059 µM | NCI-H522 < 0.005 µM | ACHN 0.0186 µM | NCI-H23 0.0241 µM | MDA-MB-435 0.0127 µM | RXF 393 0.0205 µM

Cc1ccc2c(c1)CC1(C2)Cc2ccc(C)cc2C1=O (stereo not drawn)
inactive: M14 20.2 µM | RPMI-8226 22.3 µM | T47D 59.6 µM | COLO 205 15.4 µM | SF-539 26.2 µM | SK-MEL-2 19.9 µM | TK-10 31.2 µM | CAKI-1 18.5 µM | 786-0 16.8 µM | LOX IMVI 20.1 µM | SN12C 24.8 µM | PC-3 27.9 µM | NCI/ADR-RES 15.9 µM | UO-31 27.5 µM | NCI-H522 19.9 µM | ACHN 27.7 µM | NCI-H23 36.5 µM | MDA-MB-435 11.4 µM | RXF 393 17.9 µM

CCC(=O)C1(N2CCOCC2)CCN(CCCC(=O)c2ccc(F)cc2)CC1
inactive: M14 > 100 µM | RPMI-8226 > 100 µM | T47D > 100 µM | COLO 205 > 100 µM | SF-539 > 100 µM | SK-MEL-2 > 100 µM | TK-10 > 100 µM | CAKI-1 > 100 µM | 786-0 > 100 µM | LOX IMVI > 100 µM | SN12C > 100 µM | PC-3 > 100 µM | NCI/ADR-RES > 100 µM | UO-31 > 100 µM | NCI-H522 > 100 µM | ACHN > 100 µM | NCI-H23 > 100 µM | MDA-MB-435 > 100 µM | RXF 393 > 100 µM

Nc1ccc(S(=O)(=O)Nc2nc3ccccc3nc2Nc2ccc(S(N)(=O)=O)cc2)cc1
inactive: M14 36.3 µM | RPMI-8226 33.7 µM | T47D 40.7 µM | COLO 205 52.6 µM | SF-539 31.8 µM | SK-MEL-2 19.1 µM | TK-10 44.6 µM | CAKI-1 68.7 µM | 786-0 58.3 µM | LOX IMVI 17.9 µM | SN12C 34.6 µM | PC-3 34.9 µM | NCI/ADR-RES 45.9 µM | UO-31 18.2 µM | NCI-H522 23.3 µM | ACHN 42.7 µM | NCI-H23 20.5 µM | MDA-MB-435 49.3 µM | RXF 393 20.8 µM

O=C1c2cccnc2-c2nccc3ccnc1c23
active: M14 1.02 µM | RPMI-8226 0.195 µM | T47D 0.622 µM | COLO 205 0.372 µM | CAKI-1 0.116 µM | 786-0 0.461 µM | LOX IMVI 0.418 µM | SN12C 1.04 µM | NCI/ADR-RES 0.294 µM | UO-31 0.726 µM | NCI-H522 0.163 µM | ACHN 0.158 µM | NCI-H23 0.281 µM | MDA-MB-435 0.219 µM
inactive: SF-539 1.5 µM | SK-MEL-2 2.16 µM | TK-10 1.7 µM | PC-3 1.36 µM | RXF 393 1.13 µM

Cc1ccc(Nc2nnc(-c3ccc4c(c3)OCO4)o2)c(C)c1
inactive: M14 > 100 µM | RPMI-8226 54 µM | T47D 36.2 µM | COLO 205 > 100 µM | SF-539 64.6 µM | SK-MEL-2 > 100 µM | TK-10 > 100 µM | CAKI-1 > 100 µM | 786-0 41.4 µM | LOX IMVI > 100 µM | SN12C > 100 µM | PC-3 50.1 µM | NCI/ADR-RES > 100 µM | UO-31 > 100 µM | NCI-H522 30.5 µM | ACHN > 100 µM | NCI-H23 > 100 µM | MDA-MB-435 > 100 µM | RXF 393 > 100 µM

O=C1OC[C@@H]2Cc3c([nH]c4ccccc34)[C@@H](c3ccc(O)cc3)N12
inactive: M14 23.1 µM | RPMI-8226 35.8 µM | T47D 51.5 µM | COLO 205 22.4 µM | SF-539 24.4 µM | SK-MEL-2 22 µM | TK-10 34.7 µM | CAKI-1 42.8 µM | 786-0 33.9 µM | LOX IMVI 21 µM | SN12C 41.1 µM | PC-3 24 µM | NCI/ADR-RES 34.7 µM | UO-31 30.6 µM | NCI-H522 29.3 µM | ACHN 23.7 µM | NCI-H23 19.3 µM | MDA-MB-435 24.7 µM | RXF 393 17.3 µM
